22 compounds from patent US11254671B2, “Chemical compounds” (GLAXOSMITHKLINE INTELLECTUAL PROPERTY DEVELOPMENT LIMITED, priority 2017, dated 2022) can be followed below.

This experiment deals with phosphorylated Akt at serine 473 (pAKTs473) in primary human lung fibroblasts. Put plainly: Highthroughput phosphorylated Akt (Ser473) in vitro immunoassay (MSD). Type of experiment: cell-based. Particulars: Fibroblast, 1 h compound, PDGF-BB 10 ng/ml for 10 min, mean of multiple experiments, read-out: mean pIC50, inhibition of pAkt (Ser473) (converted). From the text: Highthroughput Phosphorylated Akt (Ser473) In Vitro Immunoassay
Immunoassay to measure effect of test compounds on phosphorylated Akt at serine 473 (pAKTs473) in primary human lung fibroblasts (Lonza Group Ltd, Basel, Switzerland, Catalogue No. CC-2512) using the MesoScale Discovery (MSD) platform to quantify levels of total Akt and pAKTser473.
Human lung fibroblasts were routinely maintained in fibroblast basal medium supplemented with 2% foetal bovine serum (FBS), 0.1% human fibroblast growth factor (FGF)-B, 0.1% insulin, 0.1% GA-100 (Lonza Group Ltd, Basel, Switzerland, Catalogue No. CC-3132) at 37° C. in 5% CO2 according to the manufacturer's protocol.
For the assay, cells were harvested using Trypsin/EDTA, (Lonza Group Ltd, Basel, Switzerland, Catalogue No. CC-5012), at working concentration of 0.025%, resuspended to give 3×10^5 cells/ml and 50 ul/well seeded into 384-well plates (Greiner Group, Kremsmunster, Austria, Catalogue No. 781091) in media containing 0.4% FBS and incubated o/n at 37° C. in 5% CO2.
Test compounds were dissolved in 100% DMSO to give 10 mM stock solutions and serially diluted to generate an 11-point concentration response curve. Compound were further diluted by […] into 384-well V-bottom polypropylene plates (Greiner Group, Kremsmunster, Austria, Catalogue No. 781280) with media containing 0.4% FBS to give 50 μM top compound concentration in 0.5% DMSO.
Compounds were transferred to 384-well plates contacting cells (0.1% DMSO final) and incubated for 1 h at 37° C. in 5% CO2, prior to stimulation with platelet-derived growth factor (PDGF)-BB (R&D Systems, Catalogue No. 220-BB) at 10 ng/ml (final) for 10 min at RT. Cell assay plates were incubated on ice and treated with lysis buffer (Cell Signalling Technology, Catalogue No. 9806) containing protease and phosphatase inhibitors (Thermo Scientific, Catalogue No. 78444) followed by shaking for 30 min at 4° C.
MSD plates (MSD, MA6000 384-well GAR plate, Catalogue No. L21RA-2) were blocked with blocking buffer containing TBS (MSD, Cat. No. R61TX-1) with 0.5% bovine serum albumin (BSA) (Sigma Aldrich, Cat. No. A7906), 0.1% tween-20 (Sigma Aldrich, Catalogue No. P2287) and coated with rabbit-anti-human pAkt (s473) ab (Cell Signalling Technology, Catalogue No. CST #4060) at RT with shaking, followed by washing (×3) with 1×TBS wash reagent containing 0.1% Tween-20. Cell lysates (30 ul) were added and MSD plates centrifuged at 1000 rpm at 4° C. o/n.
Plates were washed with 1×TBS wash buffer (×3), prior to addition of mouse-anti-human-total Akt ab (1 mg/ml) (Upstate (Milipore), Catalogue No. 05-591) in blocking buffer and shaken at RT for 1 h. After washing with 1×TBS wash buffer (×3), plates were incubated with goat-anti-mouse SULFO-TAG detection ab (MSD, Catalogue No. R32AC-1) (1:500 in blocking buffer) for 1 h at RT. Plates were washed with 1×TBS (×3) and read buffer (2×) (MSD, Catalogue No. R92TC-1) added before detecting electrochemiluminescence (MSD Sector Imager 6000).
Data analysis was performed by determining % inhibition values for test compounds relative to the minimum (+PDGF-BB stimulation) and maximum responses (no PDGF-BB stimulation) with non-linear regression analysis to determine IC50 values for test compounds.

With `CNCc1cc2nc(-c3cc(C(C)(C)S(C)(=O)=O)cc(N4CCOC[C@@H]4C)n3)ccc2[nH]1` [Example 2, (S)—N-methyl-1-(5-(6-(3-methylmorpholino)-4-(2-(methylsulfonyl)propan-2-yl)pyridin-2-yl)-1H-pyrrolo[3,2-b]pyridin-2-yl)methanamine], the IC50 was 3.16 to 316 nM. As for `CNCc1cc2nc(-c3cc(C(C)(C)S(C)(=O)=O)cc(N4[C@@H]5CC[C@H]4COC5)n3)ccc2[nH]1` [Example 3, 1-(5-(6-((1R,5S)-3-oxa-8-azabicyclo[3.2.1]octan-8-yl)-4-(2-(methylsulfonyl)propan-2-yl)pyridin-2-yl)-1H-pyrrolo[3,2-b]pyridin-2-yl)-N-methylmethanamine], the figure is 3.16 to 316 nM. As for `CNCc1cc2nc(-c3cc(C(C)(C)S(C)(=O)=O)cc(N4CC5CCC(C4)O5)n3)ccc2[nH]1` [Example 4, 1-(5-(6-(8-oxa-3-azabicyclo[3.2.1]octan-3-yl)-4-(2-(methylsulfonyl)propan-2-yl)pyridin-2-yl)-1H-pyrrolo[3,2-b]pyridin-2-yl)-N-methylmethanamine], the figure is 3.16 to 316 nM; as for `CNCc1cc2nc(-c3cc(C(C)(C)S(C)(=O)=O)cc(N4C5CCCC4COC5)n3)ccc2[nH]1` [Example 5, 1-(5-(6-(3-oxa-9-azabicyclo[3.3.1]nonan-9-yl)-4-(2-(methylsulfonyl)propan-2-yl)pyridin-2-yl)-1H-pyrrolo[3,2-b]pyridin-2-yl)-N-methylmethanamine], 3.16 to 316 nM; as for `CNCc1cc2nc(-c3cc(CS(C)(=O)=O)cc(N4CCOC[C@@H]4C)n3)ccc2[nH]1` [Example 6, (S)—N-methyl-1-(5-(6-(3-methylmorpholino)-4-((methylsulfonyl)methyl)pyridin-2-yl)-1H-pyrrolo[3,2-b]pyridin-2-yl)methanamine], 3.16 to 316 nM. As for `CCS(=O)(=O)C(C)(C)c1cc(-c2ccc3[nH]c(CNC)cc3n2)nc(N2CCOC[C@@H]2C)c1` [Example 7, (S)-1-(5-(4-(2-(ethylsulfonyl)propan-2-yl)-6-(3-methylmorpholino)pyridin-2-yl)-1H-pyrrolo[3,2-b]pyridin-2-yl)-N-methylmethanamine], the figure is 3.16 to 316 nM; as for `CC[C@H]1COCCN1c1cc(C(C)(C)S(=O)(=O)C2CC2)cc(-c2ccc3[nH]c(CNC)cc3n2)n1` [Example 9, (S)-1-(5-(4-(2-(cyclopropylsulfonyl)propan-2-yl)-6-(3-ethylmorpholino)pyridin-2-yl)-1H-pyrrolo[3,2-b]pyridin-2-yl)-N-methylmethanamine], 3.16 to 316 nM; as for `CC[C@H]1COCCN1c1cc(CS(=O)(=O)C2CC2)cc(-c2ccc3[nH]c(CNC)cc3n2)n1` [Example 10, (S)-1-(5-(4-((cyclopropylsulfonyl)methyl)-6-(3-ethylmorpholino)pyridin-2-yl)-1H-pyrrolo[3,2-b]pyridin-2-yl)-N-methylmethanamine], 2.51 to 10 nM. Take `CC[C@H]1COCCN1c1cc(C2(S(=O)(=O)C3CC3)CC2)cc(-c2ccc3[nH]c(CNC)cc3n2)n1` [Example 11, (S)-1-(5-(4-(1-(cyclopropylsulfonyl)cyclopropyl)-6-(3-ethylmorpholino)pyridin-2-yl)-1H-pyrrolo[3,2-b]pyridin-2-yl)-N-methylmethanamine]: the IC50 was 3.16 to 316 nM. In the case of `CNCc1cc2nc(-c3cc(C(F)(F)S(C)(=O)=O)cc(N4CCOC[C@@H]4C)n3)ccc2[nH]1` [Example 12, (S)-1-(5-(4-(difluoro(methylsulfonyl)methyl)-6-(3-methylmorpholino)pyridin-2-yl)-1H-pyrrolo[3,2-b]pyridin-2-yl)-N-methylmethanamine] it was 3.16 to 316 nM.

Regarding `CC[C@H]1COCCN1c1cc(CS(C)(=O)=O)cc(-c2ccc3[nH]c(CNC)cc3n2)n1` [Example 13, (S)-1-(5-(6-(3-ethylmorpholino)-4-((methylsulfonyl)methyl)pyridin-2-yl)-1H-pyrrolo[3,2-b]pyridin-2-yl)-N-methylmethanamine], the IC50 is 3.16 to 316 nM. As for `CC[C@H]1COCCN1c1cc(CS(=O)(=O)N(C)C)cc(-c2ccc3[nH]c(CNC)cc3n2)n1` [Example 17, (S)-1-(2-(3-ethylmorpholino)-6-(2-((methylamino)methyl)-1H-pyrrolo[3,2-b]pyridin-5-yl)pyridin-4-yl)-N,N-dimethylmethanesulfonamide], the figure is 2.51 to 10 nM; as for `CC[C@H]1COCCN1c1cc(C2(S(C)(=O)=O)CC2)cc(-c2ccc3[nH]c(CNC)cc3n2)n1` [Example 19, [(5-{6-[(3S)-3-ethylmorpholin-4-yl]-4-(1-methanesulfonylcyclopropyl)pyridin-2-yl}-1H-pyrrolo[3,2-b]pyridin-2-yl)methyl](methyl)amine], 2.51 to 10 nM.

On to `CNCc1cc2nc(-c3cc(C4(S(C)(=O)=O)CC4)cc(N4CCOC[C@@H]4C)n3)ccc2[nH]1` [Example 20, ({5-[4-(1-methanesulfonylcyclopropyl)-6-[(3S)-3-methylmorpholin-4-yl]pyridin-2-yl]-1H-pyrrolo[3,2-b]pyridin-2-yl}methyl)(methyl)amine], for which the IC50 was 3.16 to 316 nM.

In the case of `CC[C@H]1COCCN1c1cc(C(C)(C)S(C)(=O)=O)cc(-c2ccc3[nH]c(CN)cc3n2)n1` [Example 21, 1-(5-{6-[(3S)-3-ethylmorpholin-4-yl]-4-(2-methanesulfonylpropan-2-yl)pyridin-2-yl}-1H-pyrrolo[3,2-b]pyridin-2-yl)methanamine], the IC50 was 3.16 to 316 nM. With `CC[C@H]1COCCN1c1cc(C2(S(C)(=O)=O)CCOCC2)cc(-c2ccc3[nH]c(CN)cc3n2)n1` [Example 23, 1-(5-{6-[(3S)-3-ethylmorpholin-4-yl]-4-(4-methanesulfonyloxan-4-yl)pyridin-2-yl}-1H-pyrrolo[3,2-b]pyridin-2-yl)methanamine], the IC50 was 2.51 to 10 nM. As for `CNCc1cc2nc(-c3cc(CS(C)(=O)=O)cc(N4CC5CCC(C4)O5)n3)ccc2[nH]1` [Example 25, ({5-[4-(methanesulfonylmethyl)-6-{8-oxa-3-azabicyclo[3.2.1]octan-3-yl}pyridin-2-yl]-1H-pyrrolo[3,2-b]pyridin-2-yl}methyl)(methyl)amine], the figure is 3.16 to 316 nM; as for `CC[C@H]1COCCN1c1cc(C(C)(C)S(N)(=O)=O)cc(-c2ccc3[nH]c(CNC)cc3n2)n1` [Example 28, 2-{2-[(3S)-3-ethylmorpholin-4-yl]-6-{2-[(methylamino)methyl]-1H-pyrrolo[3,2-b]pyridin-5-yl}pyridin-4-yl}propane-2-sulfonamide], 3.16 to 316 nM; as for `CC[C@H]1COCCN1c1cc(CS(=O)(=O)NC)cc(-c2ccc3[nH]c(CNC)cc3n2)n1` [Example 30, 1-{2-[(3S)-3-ethylmorpholin-4-yl]-6-{2-[(methylamino)methyl]-1H-pyrrolo[3,2-b]pyridin-5-yl}pyridin-4-yl}-N-methylmethanesulfonamide], 3.16 to 316 nM.

Regarding `CC[C@H]1COCCN1c1cc(C2(S(=O)(=O)N(C)C)CCOCC2)cc(-c2ccc3[nH]c(CNC)cc3n2)n1` [Example 31, 4-{2-[(3S)-3-ethylmorpholin-4-yl]-6-{2-[(methylamino)methyl]-1H-pyrrolo[3,2-b]pyridin-5-yl}pyridin-4-yl}-N,N-dimethyloxane-4-sulfonamide], the IC50 was 2.51 to 10 nM. In the case of `CC[C@H]1COCCN1c1cc(C(C)(C)S(C)(=O)=O)cc(-c2ccc3[nH]c(CO)cc3n2)n1` [Example 32] it was 3.16 to 316 nM; in that of `CC[C@H]1COCCN1c1cc(C2(S(C)(=O)=O)CCOCC2)cc(-c2ccc3[nH]c(CO)cc3n2)n1` [Example 33, (5-{6-[(3S)-3-ethylmorpholin-4-yl]-4-(4-methanesulfonyloxan-4-yl)pyridin-2-yl}-1H-pyrrolo[3,2-b]pyridin-2-yl)methanol], 2.51 to 10 nM.
